Measured values as given in patent US20040005708A1, “Polypeptide derivatives and nucleic acid carriers containing the same” (priority 2002, published 2004).

Assays:
[1] = tested on: HepG2 cells; conditions: Plasmid A (luciferase) complex, plasmid/pDBA weight ratio 1/3 to 1/7, 10% fetal bovine serum, 4 h then 48 h incubation, compared to non-modified pDBA
Method: Thirty minutes prior to administration, the nucleic acid carriers were added dropwise to the plasmid solution while stirring to prepare plasmid/pDBA complex solutions. PBS was used as solvent. Specifically, 25.0 μg/ml plasmid solutions were prepared, and plasmid/pDBA complex solutions having a plasmid concentration of 12.5 μg/ml were used as the gene transfer samples.
HepG2 cells were inoculated onto a 12-well multi-well plate (Coaster Inc.) at 1×10^5 cells/well one day prior to testing. The plasmid/pDBA complex solution was added to the HepG2 cells in the presence of 10% fetal bovine serum (Sanko Junyaku Co. Ltd.), and incubation was carried out at 37° C. for 4 hours. Medium was exchanged with a fresh culture medium and incubation continued for 48 hours. After washing with PBS twice, a cell lysis reagent (Toyo Ink Co. Ltd.) was added and freeze-thaw was carried out once. The cell lysate was recovered and subjected to centrifugation (12,000 rpm×10 minutes). The luciferase activity of the supernatant was determined with a luminometer (LumitLB9501; Berthold Inc.) using a luciferase assay system (Toyo Ink Co. Ltd.). The protein concentration of the centrifuged supernatant was also determined with a microplate reader (Rainbow Themo; Tecan Inc.) using a protein assay kit (Bio-Rad Inc.). […]

[2] = tested on: mice; conditions: tail vein, Plasmid A 12.5 μg/0.5 ml per mouse, plasmid/pDBA weight ratio 1/3, two days after administration
Method: A solution of Plasmid A and a solution of pDBA were prepared at twice the desired concentration. Thirty minutes prior to administration, the pDBA solutions were added dropwise to the plasmid solution while stirring to prepare plasmid/pDBA complexes solution. PBS was used as solvent. Specifically, 50.0 μg/ml plasmid solutions were prepared, and plasmid/pDBA complex solutions having a plasmid concentration of 25 μg/ml were used as the gene transfer samples.
The complex solutions were administered to mice through their tail veins. The dosage of Plasmid A per mouse was 12.5 μg/0.5 ml. Two days after administration the gene transfer to the tissue was determined by measuring the luciferase activity found in the liver.

side chain galactose-modified poly-DL-diaminobutyric acid [Gal-pDBA]
activity of luciferase expressed [1]: higher luciferase activity than did non-modified pDBA | luciferase activity in the liver as compared to the group where pDBA was used as the nucleic acid carrier [2]: about 2.5 fold
